Source: patent publication US20250057849A1, “ANTIVIRAL COMPOSITION COMPRISING NUCLEOSIDE ANALOGUES DERIVED FROM NUCLEIC ACID AND PHARMACEUTICALLY ACCEPTABLE SALT THEREOF” (CJ CheilJedang Corporation, priority 2021, published 2025)
Like-named read-outs stand apart in the source and are kept apart here.

Tests used:
[1] = tested on: PRRSV (NA type, VR-2332 strain); test: PRRSV infection inhibition in Marc-145 cells (immunofluorescence staining); type: cell-based, Porcine Reproductive and Respiratory Syndrome virus; details: for IC50: Marc-145 cells, 100 TCID50/ml PRRSV, three days after treatment, read-out: PRRSV infection inhibition concentration IC50
BRV = BRV infection inhibition in MDBK cells (RT-qPCR); type: cell-based, Bovine Rotavirus; details: for IC50: MDBK cells, 200 TCID50/well BRV, after 4 days, read-out: BRV infection inhibition concentration IC50
Method: The next day, BRV of 200 TCID50/well and inosine, xanthosine and guanosine in the dialdehyde and acyclic diol forms were treated to the cells simultaneously, and after 4 days, using commercialized Viral gene (DNA/RNA) extraction kit (iNtRON, 101410754), RNA was isolated.
For the isolated RNA, using BRV-specific primers (F-[…] , R-[…] ) and realtime RT-qPCR experimental method (95° C., 10 minutes 1 cycle, 95° C., 15 seconds, 60° C., 15 seconds, 72° C., 20 seconds 40 cycles), the antiviral efficacy of the materials was confirmed.

PRV = test: microbe, parasite or virus in culture; type: cell-based, Porcine Rotavirus; details: for IC50: read-out: PRV infection inhibition concentration IC50
MDCK cell line = test: Cytotoxicity, MDCK cell tests; details: cytotoxicity
PK15 cell line = test: Cytotoxicity, PK15 cell test; details: read-out: CC50 (Table 3, PCV2); cytotoxicity
[2] = tested on: Influenza virus (2009 pandemic strain, CA04); details: for abnormal lesions due to fed materials (liver, stomach, spleen, kidney, heart, small intestine, large intestine): 250 mg/kg
[3] = tested on: PEDV (G1a type, SM98 strain); test: PEDV infection inhibition in Vero cells (PEDV detection kit on isolated RNA); type: cell-based, Porcine Epidemic Diarrhea virus; details: for IC50: Vero cells, 200 TCID50/ml PEDV, after 2 days, read-out: PEDV infection inhibition concentration IC50
Method: The next day, PEDV (G1a type, SM98 strain) of 200 TCID50/ml and inosine, xanthosine and guanosine in the dialdehyde and acyclic diol forms were treated to the cells simultaneously, and after 2 days, using commercialized Viral gene (DNA/RNA) extraction kit (iNtRON, 101410754), RNA was isolated. For the isolated RNA, using commercialized PEDV detection kit (Mediandiagnostics, NS-PED-31), the antiviral efficacy of the materials was verified.

PCV2 = PCV2 infection inhibition in PK15 cells (qPCR); type: cell-based, Porcine Circovirus Type 2; details: for IC50: PK15 cells, 200 TCID50/well PCV2, after 4 days, read-out: PCV2 infection inhibition concentration IC50
Method: For the isolated DNA, using PCV2-specific primers (F-[…] , R-[…] ) and realtime RT-qPCR experimental method (95° C., 30 seconds 1 cycle, 95° C., 20 seconds, 56° C., 60 seconds 40 cycles), the antiviral efficacy of the materials was verified.

[4] = mouse, in vivo
IBV = test: microbe, parasite or virus in culture; type: cell-based, Avian Infectious Bronchitis virus; details: for IC50: read-out: IBV infection inhibition concentration IC50
[5] = tested on: Swine Influenza virus (SIV); test: organism not typed; type: cell-based; details: for IC50: read-out: SIV infection inhibition concentration IC50
Marc-145 cell line = test: Cytotoxicity (WST-1 / DAPI staining), PRRSV test cells
MDBK cell line = test: Cytotoxicity, MDBK cell tests; details: cytotoxicity
CPV = CPV infection inhibition in MDCK cells (qPCR); type: cell-based, Canine Parvovirus; details: for IC50: MDCK cells, 200 TCID50/well CPV, after 4 days, read-out: CPV infection inhibition concentration IC50 (Table 10)
Method: For the isolated DNA, using CPV-specific primers (F-[…] , R-[…] ) and realtime RT-qPCR experimental method (95° C., 5 minutes 1 cycle, 95° C., 10 seconds, 60° C., 30 seconds, 40 cycles), the antiviral efficacy of the materials was confirmed.

NDV = test: microbe, parasite or virus in culture; type: cell-based, Avian Newcastle Disease virus; details: for IC50: read-out: NDV infection inhibition concentration IC50
BVDV = BVDV infection inhibition in MDBK cells (RT-qPCR); type: cell-based, Bovine Viral Diarrhea virus; details: for IC50: MDBK cells, 200 TCID50/well BVDV, after 4 days, read-out: BVDV infection inhibition concentration IC50
Method: The next day, BVDV of 200 TCID50/well and inosine, xanthosine and guanosine in the dialdehyde and acyclic diol forms were treated to the cells simultaneously, and after 4 days, using commercialized Viral gene (DNA/RNA) extraction kit (iNtRON, 101410754), RNA was isolated.
For the isolated RNA, using BVDV-specific primers (F-[…] , R-[…] ) and realtime RT-qPCR experimental method (94° C., 10 minutes 1 cycle, 94° C., 10 seconds, 53° C., 20 seconds, 72° C., 30 seconds 35 cycles), the antiviral efficacy of the materials was verified.

[6] = Cytotoxicity, MDCK cell tests; details: dog, MDCK cells
[7] = Cytotoxicity, PK15 cell test; details: pig, PK15 cells
PRRSV (NA strain) = test: PRRS virus challenge test using piglets
in vitro = details: monkey
[8] = Cytotoxicity (WST-1 / DAPI staining), PRRSV test cells; details: monkey, Marc-145 cells (monkey kidney)
[9] = Cytotoxicity, MDBK cell tests; details: bovine, MDBK cells
[10] = Water solubility (stated); type: physicochemical
[11] = mice, 100 MLD50 CA04, 250 mg/kg intragastric
[12] = autopsy at 2 weeks, 50 mg/kg/day oral

## Nc1nc2c(ncn2[C@@H](C=O)O[C@@H](C=O)CO)c(=O)[nH]1 [Dialdehyde-guanosine, dialdehyde form of guanosine]
[1]
  IC50: 40 µM
[1]; at 40 μM
  PRRSV infection inhibition: 50%
[1]; at 100 μM
  PRRSV infection inhibition: ≥ 90%
BRV
  IC50: 88.3 µM
PRV
  IC50: 177 µM
MDCK cell line; read-out: CC50 (Table 5, SIV)
  CC50: > 6000 µM
MDCK cell line; read-out: CC50 (Table 10, CPV)
  CC50: > 6000 µM
PK15 cell line
  CC50: > 6000 µM
[2]; mouse, in vivo
  amount of the virus remaining in the lung tissue (PCR): slightly lower
  clinical symptoms after SIV challenge: very mild symptoms
  lung lesions at autopsy: mild lung lesions
  survival rate on the 7th day: 80%
  survival rate predicted on the 8th day based on all data up to the 7th day: 60%
  weight loss after SIV challenge: very slight
  abnormal lesions due to fed materials (liver, stomach, spleen, kidney, heart, small intestine, large intestine): not observed
[3]
  IC50: 157 µM
PCV2
  IC50: 96.6 µM
Vero cell line
  CC50: > 6000 µM
[4]; ip, 50 mg/kg
  time when 50% of the remaining materials was measured (based on AUC values): about 6 hours
[4]; po, 250 mg/kg
  time when 50% of the remaining materials was measured (based on AUC values): about 9 hours
IBV; Vero cells, 200 TCID50/well IBV, after 4 days
  IC50: 275 µM
[5]; MDCK cells, 200 TCID50/well SIV, after 4 days
  IC50: 171 µM
Marc-145 cell line; read-out: CC50 (Table 1, PRRSV), cytotoxicity, WST-1
  CC50: > 6000 µM
Marc-145 cell line; up to 1000 μM
  cytotoxicity by DAPI staining: no cytotoxicity was observed
MDBK cell line; read-out: CC50 (Table 8, BVDV)
  CC50: > 6000 µM
MDBK cell line; read-out: CC50 (Table 9, BRV)
  CC50: > 6000 µM
CPV
  IC50: 2060 µM
NDV; Vero cells, 200 TCID50/well NDV, after 3 days
  IC50: 1120 µM
BVDV
  IC50: 2760 µM

## O=C[C@@H](CO)O[C@H](C=O)n1cnc2c(=O)[nH]c(=O)[nH]c21 [Dialdehyde-xanthosine, dialdehyde form of xanthosine]
[1]; CC50/IC50
  SI (selectivity index), PRRSV: >133.3
[1]
  IC50: 75 µM
BRV; CC50/IC50
  SI (selectivity index), BRV: >198.1
BRV; Rotavirus A, 96 h
  IC50: 50.5 µM
PRV; CC50/IC50
  SI (selectivity index), PRV: >110.9
PRV; Rotavirus C, Vero, 72 h
  IC50: ≤ 100 µM
PRV
  IC50: 90.2 µM
[6]
  CC50: > 10000 µM
MDCK cell line; read-out: CC50 (Table 10, CPV)
  CC50: > 10000 µM
[7]
  CC50: > 10000 µM
[2]; [11]
  survival rate on the 7th day: 100%
  survival rate predicted on the 8th day based on all data up to the 7th day: 100%
[2]; mouse, in vivo
  amount of the virus remaining in the lung tissue (PCR): lowest virus titer
  clinical symptoms after SIV challenge: very mild symptoms
  lung lesions at autopsy: mild lung lesions
  weight loss after SIV challenge: very slight
  abnormal lesions due to fed materials (liver, stomach, spleen, kidney, heart, small intestine, large intestine): not observed
PRRSV (NA strain); 50 mg/kg/day oral twice/day, 14 days
  weight gain after PRRSV infection: no delay in weight gain
PRRSV (NA strain); [12]
  PRRS virus in lung by immunohistochemistry: only a very small amount of viruses were detected
  interstitial pneumonia lesions, visual observation of lung: relatively intact lung
  virus titer in lung tissue: reduced compared to the positive control group
[3]; CC50/IC50
  SI (selectivity index), PEDV: >25.1
[3]; Porcine epidemic diarrhea virus, 48 h
  IC50: 398 µM
PCV2; CC50/IC50
  SI (selectivity index), PCV2: >23
PCV2; Porcine circovirus 2, PK-15, 96 h
  IC50: 436 µM
Vero cell line; monkey
  CC50: > 10000 µM
In vitro
  CC50: > 10000 µM
[4]
  half-life tendency compared with guanosine in the dialdehyde form: shorter
[4]; ip, 50 mg/kg
  time when 50% of the remaining materials was measured (based on AUC values): about 6 hours
[4]; po, 250 mg/kg
  time when 50% of the remaining materials was measured (based on AUC values): about 6 hours
IBV; Avian coronavirus, Vero, 96 h
  IC50: 226 µM
IBV; CC50/IC50
  SI (selectivity index), IBV: >44.3
[5]; CC50/IC50
  SI (selectivity index), SIV: >13.4
[5]; MDCK, 96 h
  IC50: 748 µM
[8]
  CC50: > 10000 µM
[9]
  CC50: > 10000 µM
MDBK cell line; read-out: CC50 (Table 9, BRV)
  CC50: > 10000 µM
CPV; CC50/IC50
  SI (selectivity index), CPV: >45.2
CPV; Canine parvovirus, 96 h
  IC50: 221 µM
[10]
  water solubility: slightly high
NDV; CC50/IC50
  SI (selectivity index), NDV: >19
NDV; avian paramyxovirus 1, Vero, 72 h
  IC50: 526 µM
BVDV; Bovine viral diarrhea virus isolates and strains, 96 h
  IC50: 97.8 µM
BVDV; CC50/IC50
  SI (selectivity index), BVDV: >102.2
